Measurements: the NIST ThermoML archive (doi:10.1021/je034102r)

Experiment: molar heat capacity at constant pressure
Conditions: 101.33 kPa, Liquid, heat bridge-scanning calorimeter

CCCCn1cc[n+](C)c1.F[P-](F)(F)(F)(F)F [1-butyl-3-methylimidazolium hexafluorophosphate]
Conditions | molar heat capacity at constant pressure [J/K/mol]
353.76 K | 441.34
353.89 K | 441.34
354.01 K | 441.62
354.29 K | 441.9
354.41 K | 441.9
354.54 K | 441.62
354.66 K | 441.9
354.79 K | 442.19
354.91 K | 441.9
355.04 K | 442.19
355.16 K | 442.47
355.29 K | 442.47
355.41 K | 442.47
355.54 K | 442.47
355.81 K | 442.76
355.94 K | 443.04
356.06 K | 442.76
356.19 K | 442.76
356.31 K | 443.04
356.44 K | 443.04
356.56 K | 443.32
356.69 K | 443.32
356.81 K | 443.61
357.1 K | 443.32
357.24 K | 443.61
357.36 K | 443.61
357.49 K | 443.61
357.61 K | 443.61
357.74 K | 443.89
357.86 K | 443.89
357.99 K | 444.18
358.12 K | 444.18
358.24 K | 444.18
358.37 K | 444.18
358.64 K | 444.46
358.76 K | 444.75
358.89 K | 444.46
359.02 K | 444.75
359.14 K | 444.75
359.27 K | 444.75
359.39 K | 445.03
359.52 K | 445.03
359.64 K | 445.31
359.93 K | 445.31
360.05 K | 445.31
360.18 K | 445.6
360.3 K | 445.6
360.43 K | 445.88
360.55 K | 445.88
360.68 K | 445.88
360.8 K | 446.17
360.93 K | 446.17
361.05 K | 446.17
361.18 K | 446.45
361.45 K | 446.45
361.58 K | 446.45
361.7 K | 446.45
361.83 K | 446.45
361.95 K | 446.73
362.08 K | 446.73
362.2 K | 447.02
362.33 K | 447.02
362.45 K | 447.02
362.73 K | 447.02
362.86 K | 447.02
362.98 K | 447.3
363.12 K | 447.3
363.25 K | 447.3
363.37 K | 447.3
363.5 K | 447.59
363.62 K | 447.59
363.75 K | 447.87
363.87 K | 447.59
364 K | 447.87
364.27 K | 447.87
364.4 K | 447.87
364.52 K | 447.87
364.65 K | 448.16
364.77 K | 448.16
364.9 K | 448.16
365.02 K | 448.16
365.15 K | 448.44
365.28 K | 448.16
365.56 K | 448.44
365.69 K | 448.44
365.81 K | 448.72
365.94 K | 448.72
366.06 K | 448.72
366.19 K | 448.72
366.32 K | 448.72
366.44 K | 449.01
366.57 K | 449.01
366.69 K | 449.01
366.82 K | 449.29
367.09 K | 449.29
367.22 K | 449.29
367.34 K | 449.58
367.47 K | 449.86
367.59 K | 449.86
367.72 K | 449.86
367.84 K | 449.86
367.97 K | 449.86
368.1 K | 450.43
368.38 K | 450.14
368.51 K | 450.43
368.63 K | 450.43
368.76 K | 450.43
368.88 K | 450.43
369.02 K | 450.43
369.15 K | 450.43
369.27 K | 450.43
369.4 K | 450.71
369.53 K | 450.71
369.65 K | 450.71
369.92 K | 452.13
370.05 K | 452.13
370.17 K | 451.85
370.3 K | 451.28
370.43 K | 451.57
370.55 K | 451.28
370.68 K | 451.28
370.8 K | 451.57
370.93 K | 451.57
371.21 K | 451.85
371.34 K | 452.13
371.47 K | 452.13
371.59 K | 451.85
371.72 K | 452.13
371.84 K | 451.85
371.97 K | 452.13
372.09 K | 452.13
372.22 K | 452.13
372.35 K | 452.13
372.47 K | 452.7
372.74 K | 452.99
372.87 K | 452.7
372.99 K | 452.7
373.12 K | 452.7
373.25 K | 452.99
373.37 K | 453.56
373.5 K | 453.84
373.62 K | 453.56
373.75 K | 452.7
374.03 K | 453.27
374.16 K | 453.27
374.29 K | 453.27
374.41 K | 453.27
374.54 K | 454.41
374.67 K | 455.26
374.79 K | 454.69
374.92 K | 454.69
375.06 K | 454.69
375.18 K | 454.41
375.31 K | 454.12
375.58 K | 453.84
375.71 K | 453.84
375.83 K | 453.56
375.96 K | 453.84
376.09 K | 454.69
376.21 K | 455.83
376.34 K | 455.83
376.46 K | 455.54
376.59 K | 454.98
376.87 K | 454.41
376.99 K | 454.41
377.12 K | 454.41
377.25 K | 454.98
377.37 K | 455.26
377.5 K | 454.98
377.63 K | 454.69
377.75 K | 454.69
377.88 K | 454.98
378 K | 455.26
378.13 K | 455.54
378.4 K | 455.54
378.53 K | 455.26
378.65 K | 455.54
378.78 K | 455.54
378.91 K | 455.54
379.03 K | 455.54
379.16 K | 455.83
379.29 K | 456.11
379.41 K | 457.53
379.7 K | 456.11
379.83 K | 456.11
379.95 K | 456.4
380.08 K | 456.68
380.21 K | 456.68
380.33 K | 456.68
380.46 K | 456.68
380.59 K | 456.68
